Test results from paper PMC9945734 (BMC Medicine, 2023).
Where two headings read alike, the source gives them in different places.

System: PC-3-KQ cells
Test: 3D spheroid invasion assay and screening of FDA-approved drugs
Type: cell-based, human
Settings: for Invasion rates (%) of each drug’s multiple concentrations (μM) / activity at 0.01 µM / activity at 0.1 µM / activity at 1 µM / activity at 10 µM: compared to vehicle control; for activity at 0.01 µM / activity at 0.1 µM / activity at 1 µM / activity at 10 µM: 72 h
Outline: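 Cells were clustered into spheroids by centrifugation and grown 3 days, then embedded in matrigel-medium containing drug on day 4 and cultured another 3 days. Drugs were screened at 10 μM first, then at 0–10 μM, in duplicate wells. Invasion area is total area minus core sphere area from phase-contrast images.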

[1] = 0.01 μM (first column so headed), secondary screening of 87 hit compounds (Table S1)
[2] = 0.01 μM (second column so headed), secondary screening of 87 hit compounds (Table S1)
[3] = 0.1 μM, secondary screening of 87 hit compounds (Table S1)
[4] = 1 μM, secondary screening of 87 hit compounds (Table S1)
[5] = 10 μM, secondary screening of 87 hit compounds (Table S1)
[6] = Homo sapiens, 0.01 μM (first column so headed), secondary screening of 87 hit compounds (Table S1), read-out: Invasion rates (%) of each drug’s multiple concentrations
[7] = Homo sapiens, 0.01 μM (second column so headed), secondary screening of 87 hit compounds (Table S1), read-out: Invasion rates (%) of each drug’s multiple concentrations
[8] = Homo sapiens, 0.1 μM, secondary screening of 87 hit compounds (Table S1), read-out: Invasion rates (%) of each drug’s multiple concentrations
[9] = Homo sapiens, 1 μM, secondary screening of 87 hit compounds (Table S1), read-out: Invasion rates (%) of each drug’s multiple concentrations
[10] = Homo sapiens, 10 μM, secondary screening of 87 hit compounds (Table S1), read-out: Invasion rates (%) of each drug’s multiple concentrations
[11] = Homo sapiens, 0.01 μM (first column so headed), third screening of 25 hit compounds (Table S2), read-out: Invasion rates (%) of each drug’s multiple concentrations
[12] = Homo sapiens, 0.01 μM (second column so headed), third screening of 25 hit compounds (Table S2), read-out: Invasion rates (%) of each drug’s multiple concentrations
[13] = Homo sapiens, 0.1 μM, third screening of 25 hit compounds (Table S2), read-out: Invasion rates (%) of each drug’s multiple concentrations
[14] = Homo sapiens, 1 μM, third screening of 25 hit compounds (Table S2), read-out: Invasion rates (%) of each drug’s multiple concentrations
[15] = Homo sapiens, 10 μM, third screening of 25 hit compounds (Table S2), read-out: Invasion rates (%) of each drug’s multiple concentrations

Structure (SMILES) | Invasion rates (%) of each drug’s multiple concentrations (μM) [1] [%] | Invasion rates (%) of each drug’s multiple concentrations (μM) [2] [%] | Invasion rates (%) of each drug’s multiple concentrations (μM) [3] [%] | Invasion rates (%) of each drug’s multiple concentrations (μM) [4] [%] | Invasion rates (%) of each drug’s multiple concentrations (μM) [5] [%] | activity at 0.01 µM [6] [%] | activity at 0.01 µM [7] [%] | activity at 0.1 µM [8] [%] | activity at 1 µM [9] [%] | activity at 10 µM [10] [%] | further results
CCCCCCCCN=c1ccn(CCCCCCCCCCn2ccc(=NCCCCCCCC)cc2)cc1.Cl.Cl [Octenidine (dihydrochloride)] | 97.90 | 100.69 | 97.53 | 95.54 | 46.51 |  |  |  |  |  | 
Cc1ncc([N+](=O)[O-])n1CC(O)CCl (stereo not shown) [Ornidazole (Levo-)] | 90.43 | 93.59 | 87.04 | 71.01 | 4.84 |  |  |  |  |  | 
C=CC(=O)Nc1cc(Nc2nccc(-c3cn(C)c4ccccc34)n2)c(OC)cc1N(C)CCN(C)C [Osimertinib] |  |  |  |  |  | 89 | 98.8 | 86.4 | 83.8 | 5.6 | 
CN(C)[C@@H]1C(O)=C(C(N)=O)C(=O)[C@@]2(O)C(O)=C3C(=O)c4c(O)cccc4[C@@](C)(O)[C@H]3[C@H](O)[C@@H]12 [Oxytetracycline] |  |  |  |  |  | 84.1 | 91 | 82.2 | 71.3 | 8.26 | 
CNc1ncc(-c2ccc3c(=O)c(C(=O)O)cn(C4CC4)c3c2C)cc1C [Ozenoxacin] | 96.05 | 100.15 | 94.32 | 88.16 | 4.14 |  |  |  |  |  | 
COc1cccc2c1C(=O)c1c(O)c3c(c(O)c1C2=O)C[C@@](O)(C(=O)CO)C[C@@H]3O[C@H]1C[C@H](N)[C@H](O[C@@H]2CCCCO2)[C@H](C)O1.Cl [Pirarubicin (Hydrochloride)] | 87.28 | 91.46 | 86.00 | 81.69 | 10.50 |  |  |  |  |  | 
Cc1ccc(C(=O)Nc2ccc(CN3CCN(C)CC3)c(C(F)(F)F)c2)cc1C#Cc1cnc2cccnn12 [Ponatinib] |  |  |  |  |  |  |  |  |  |  | activity at 0.01 µM (Homo sapiens, read-out: Invasion rates (%) of each drug’s multiple concentrations (μM), 0.01 μM (first column so headed), secondary screening of 87 hit compounds (Table S1)): 94.4%; activity at 0.01 µM (Homo sapiens, read-out: Invasion rates (%) of each drug’s multiple concentrations (μM), 0.01 μM (second column so headed), secondary screening of 87 hit compounds (Table S1)): 94.5%; activity at 0.1 µM (Homo sapiens, read-out: Invasion rates (%) of each drug’s multiple concentrations (μM), 0.1 μM, secondary screening of 87 hit compounds (Table S1)): 94.8%; activity at 1 µM (Homo sapiens, read-out: Invasion rates (%) of each drug’s multiple concentrations (μM), 1 μM, secondary screening of 87 hit compounds (Table S1)): 91%; activity at 10 µM (Homo sapiens, read-out: Invasion rates (%) of each drug’s multiple concentrations (μM), 10 μM, secondary screening of 87 hit compounds (Table S1)): 17.7%
CN(C)C(=O)c1cc2cnc(Nc3ccc(N4CCNCC4)cn3)nc2n1C1CCCC1 [Ribociclib] |  |  |  |  |  | 99.5 | 101 | 97.2 | 96 | 30.9 | 
Cn1c([N+](=O)[O-])cnc1COC(N)=O [Ronidazole] |  |  |  |  |  | 64.2 | 67.3 | 27.6 | 5.96 | 5.14 | activity at 0.01 µM [11]: 81.8%; activity at 0.01 µM [12]: 87.5%; activity at 0.1 µM [13]: 5.74%; activity at 1 µM [14]: 3.06%; activity at 10 µM [15]: 2.89%; inhibition at 0.1 µM (Homo sapiens, at 0.1 μM, read-out: inhibition of cell invasion): > 50%
Cc1ncc([N+](=O)[O-])n1CC(C)O (stereo not shown) [Secnidazole] |  |  |  |  |  | 94.7 | 96.4 | 89 | 82.8 | 4.4 | 
COc1ccc2c(O[C@@H]3C[C@H]4C(=O)N[C@]5(C(=O)NS(=O)(=O)C6CC6)C[C@H]5/C=C\CCCCN(C)C(=O)[C@@H]4C3)cc(-c3nc(C(C)C)cs3)nc2c1C [Simeprevir] |  |  |  |  |  | 98.5 | 101 | 97.2 | 96.2 | 38.8 | 
CNC(=O)c1cc(Oc2ccc(NC(=O)Nc3ccc(Cl)c(C(F)(F)F)c3)cc2)ccn1 [Sorafenib] |  |  |  |  |  | 91.9 | 101 | 91.9 | 76.2 | 43.3 | 
CCN(CC)CCNC(=O)c1c(C)[nH]c(/C=C2\C(=O)Nc3ccc(F)cc32)c1C [Sunitinib] |  |  |  |  |  | 88.6 | 94.9 | 83.7 | 61.1 | 0.8 | 
CC/C(=C(\c1ccccc1)c1ccc(OCCN(C)C)cc1)c1ccccc1.O=C(O)CC(O)(CC(=O)O)C(=O)O [Tamoxifen (Citrate)] | 94.34 | 97.97 | 91.22 | 85.65 | 1.00 |  |  |  |  |  | 
CC/C(=C(\c1ccccc1)c1ccc(OCCN(C)C)cc1)c1ccccc1 [Tamoxifen] |  |  |  |  |  | 96.2 | 95.4 | 97 | 91.1 | 24.3 | 
Cn1nnc(-c2ccc(-c3ccc(N4C[C@H](COP(=O)(O)O)OC4=O)cc3F)cn2)n1 [Tedizolid (phosphate)] |  |  |  |  |  | 89 | 91.7 | 70.7 | 3.59 | 3.35 | activity at 0.01 µM [11]: 99.8%; activity at 0.01 µM [12]: 96.1%; activity at 0.1 µM [13]: 90.7%; activity at 1 µM [14]: 3.28%; activity at 10 µM [15]: 2.87%
COc1cc([C@@H]2c3cc4c(cc3[C@@H](O[C@@H]3O[C@@H]5CO[C@@H](c6cccs6)O[C@H]5[C@H](O)[C@H]3O)[C@H]3COC(=O)[C@H]23)OCO4)cc(OC)c1O [Teniposide] |  |  |  |  |  | 93.1 | 91.8 | 85 | 77.2 | 3.21 | 
CN(C)[C@@H]1C(O)=C(C(N)=O)C(=O)[C@@]2(O)C(O)=C3C(=O)c4c(O)cccc4[C@@](C)(O)[C@H]3C[C@@H]12.Cl [Tetracycline (hydrochloride)] | 84.87 | 95.46 | 83.74 | 67.27 | 2.14 |  |  |  |  |  | 
CS(=O)(=O)c1ccc([C@@H](O)[C@@H](CO)NC(=O)C(Cl)Cl)cc1 [Thiamphenicol] |  |  |  |  |  | 90.9 | 92 | 91.7 | 71.5 | 6.21 | 
CN(C)c1cc(NC(=O)CNC(C)(C)C)c(O)c2c1C[C@H]1C[C@H]3[C@H](N(C)C)C(=O)C(C(N)=O)=C(O)[C@@]3(O)C(=O)C1=C2O.CS(=O)(=O)O.CS(=O)(=O)O.CS(=O)(=O)O.CS(=O)(=O)O [Tigecycline (tetramesylate)] | 59.60 | 77.93 | 4.93 | 4.75 | 8.35 |  |  |  |  |  | Invasion rates (%) of each drug’s multiple concentrations (μM) (0.01 μM (first column so headed), third screening of 25 hit compounds (Table S2)): 89.06%; Invasion rates (%) of each drug’s multiple concentrations (μM) (0.01 μM (second column so headed), third screening of 25 hit compounds (Table S2)): 89.80%; Invasion rates (%) of each drug’s multiple concentrations (μM) (0.1 μM, third screening of 25 hit compounds (Table S2)): 88.10%; Invasion rates (%) of each drug’s multiple concentrations (μM) (1 μM, third screening of 25 hit compounds (Table S2)): 2.36%; Invasion rates (%) of each drug’s multiple concentrations (μM) (10 μM, third screening of 25 hit compounds (Table S2)): 1.12%
CCN(CC)CCOc1ccc2c(c1)C(=O)c1cc(OCCN(CC)CC)ccc1-2.Cl.Cl [Tilorone (dihydrochloride)] | 95.38 | 99.11 | 94.30 | 93.22 | 9.81 |  |  |  |  |  | 
